Bridge positions count the residues as written; N and C are the ends. Square brackets hold non-standard residues; d marks the D form. Side chains are listed from the residue outwards. Peptide text beside a SMILES is read from it. I, II: the chains in the order shown. * marks the point of attachment. Stearoyl = CCCCCCCCCCCCCCCCCC(=O)*
Experiments:
HEK293 cells [1] = assay: Cell viability by PrestoBlue assay after transfection, HEK cells; assay type: cell-based; settings: 4 h
in vitro = settings: isolated enzyme proteinase k, pH 8
HeLa cells = assay: Cell viability by PrestoBlue assay after transfection, HeLa cells; assay type: cell-based; settings: 4 h
HEK293 cells [2] = assay type: cell-based; settings: 1 h

Row | remaining at 1 h, 200 µM (in vitro) [%] | remaining at 2 h, 200 µM (in vitro) [%] | remaining at 3 h, 200 µM (in vitro) [%] | remaining at 12 h, 200 µM (in vitro) [%] | remaining at 24 h, 200 µM (in vitro) [%] | Compound | % viability HEK cells (HEK293 cells [1]) [%] | % viability HeLa cells (HeLa cells) [%] | transfection of HEK cells with protease inhibition (HEK293 cells [2]) [%]
1 | 45 | 39.6 | 24.6 | 1.66 | 1.73 | CCCCCCCCCCCCCCCCCC(=O)NCCCC[C@H](NC(=O)[C@H](CCCCNC(=O)[C@H](CC(C)C)NC(=O)[C@H](CCCNC(=N)N)NC(=O)[C@H](CCCCNC(=O)[C@H](CC(C)C)NC(=O)[C@H](CCCNC(=N)N)NC(=O)[C@H](CCCCNC(=O)[C@H](CC(C)C)NC(=O)[C@@H](N)CCCNC(=N)N)NC(=O)[C@H](CC(C)C)NC(=O)[C@@H](N)CCCNC(=N)N)NC(=O)[C@H](CC(C)C)NC(=O)[C@H](CCCNC(=N)N)NC(=O)[C@H](CCCCNC(=O)[C@H](CC(C)C)NC(=O)[C@@H](N)CCCNC(=N)N)NC(=O)[C@H](CC(C)C)NC(=O)[C@@H](N)CCCNC(=N)N)NC(=O)[C@H](CC(C)C)NC(=O)[C@H](CCCNC(=N)N)NC(=O)[C@H](CCCCNC(=O)[C@H](CC(C)C)NC(=O)[C@H](CCCNC(=N)N)NC(=O)[C@H](CCCCNC(=O)[C@H](CC(C)C)NC(=O)[C@@H](N)CCCNC(=N)N)NC(=O)[C@H](CC(C)C)NC(=O)[C@@H](N)CCCNC(=N)N)NC(=O)[C@H](CC(C)C)NC(=O)[C@H](CCCNC(=N)N)NC(=O)[C@H](CCCCNC(=O)[C@H](CC(C)C)NC(=O)[C@@H](N)CCCNC(=N)N)NC(=O)[C@H](CC(C)C)NC(=O)[C@@H](N)CCCNC(=N)N)C(N)=O [Z23] (I: H-RLK([Leu-Arg])RLKRLKK(Stearoyl)-NH2 / II: H-RLK([Leu-Arg])RLKRL / III: H-RLK([Leu-Arg])RL / IV: H-RLK([Leu-Arg])RL; amide I:6-IV:C, I:9-II:C, II:6-III:C) | 83 ± 2 | 95 ± 5 | 46
2 |  |  |  |  |  | CCCCCCCCCCCCCCCCCC(=O)NCCCC[C@@H](NC(=O)[C@@H](CCCCNC(=O)[C@@H](CC(C)C)NC(=O)[C@@H](CCCCN)NC(=O)[C@@H](CCCCNC(=O)[C@@H](CC(C)C)NC(=O)[C@@H](CCCCN)NC(=O)[C@@H](CCCCNC(=O)[C@@H](CC(C)C)NC(=O)[C@H](N)CCCCN)NC(=O)[C@@H](CC(C)C)NC(=O)[C@H](N)CCCCN)NC(=O)[C@@H](CC(C)C)NC(=O)[C@@H](CCCCN)NC(=O)[C@@H](CCCCNC(=O)[C@@H](CC(C)C)NC(=O)[C@H](N)CCCCN)NC(=O)[C@@H](CC(C)C)NC(=O)[C@H](N)CCCCN)NC(=O)[C@@H](CC(C)C)NC(=O)[C@@H](CCCCN)NC(=O)[C@@H](CCCCNC(=O)[C@@H](CC(C)C)NC(=O)[C@@H](CCCCN)NC(=O)[C@@H](CCCCNC(=O)[C@@H](CC(C)C)NC(=O)[C@H](N)CCCCN)NC(=O)[C@@H](CC(C)C)NC(=O)[C@H](N)CCCCN)NC(=O)[C@@H](CC(C)C)NC(=O)[C@@H](CCCCN)NC(=O)[C@@H](CCCCNC(=O)[C@@H](CC(C)C)NC(=O)[C@H](N)CCCCN)NC(=O)[C@@H](CC(C)C)NC(=O)[C@H](N)CCCCN)C(N)=O [Z26] (I: H-[dK][dL][dK]([dL-dK])[dK][dL][dK][dK][dL][dK][dK](Stearoyl)-NH2 / II: H-[dK][dL][dK]([dL-dK])[dK][dL][dK][dK][dL] / III: H-[dK][dL][dK]([dL-dK])[dK][dL] / IV: H-[dK][dL][dK]([dL-dK])[dK][dL]; amide I:6-IV:C, I:9-II:C, II:6-III:C) | 91.3 ± 0.2 | 91 ± 5 | 51
3 | 100 | 97.7 | 95.4 | 91.8 | 101 | CCCCCCCCCCCCCCCCCC(=O)NCCCC[C@@H](NC(=O)[C@@H](CCCCNC(=O)[C@@H](CC(C)C)NC(=O)[C@@H](CCCNC(=N)N)NC(=O)[C@@H](CCCCNC(=O)[C@@H](CC(C)C)NC(=O)[C@@H](CCCNC(=N)N)NC(=O)[C@@H](CCCCNC(=O)[C@@H](CC(C)C)NC(=O)[C@H](N)CCCNC(=N)N)NC(=O)[C@@H](CC(C)C)NC(=O)[C@H](N)CCCNC(=N)N)NC(=O)[C@@H](CC(C)C)NC(=O)[C@@H](CCCNC(=N)N)NC(=O)[C@@H](CCCCNC(=O)[C@@H](CC(C)C)NC(=O)[C@H](N)CCCNC(=N)N)NC(=O)[C@@H](CC(C)C)NC(=O)[C@H](N)CCCNC(=N)N)NC(=O)[C@@H](CC(C)C)NC(=O)[C@@H](CCCNC(=N)N)NC(=O)[C@@H](CCCCNC(=O)[C@@H](CC(C)C)NC(=O)[C@@H](CCCNC(=N)N)NC(=O)[C@@H](CCCCNC(=O)[C@@H](CC(C)C)NC(=O)[C@H](N)CCCNC(=N)N)NC(=O)[C@@H](CC(C)C)NC(=O)[C@H](N)CCCNC(=N)N)NC(=O)[C@@H](CC(C)C)NC(=O)[C@@H](CCCNC(=N)N)NC(=O)[C@@H](CCCCNC(=O)[C@@H](CC(C)C)NC(=O)[C@H](N)CCCNC(=N)N)NC(=O)[C@@H](CC(C)C)NC(=O)[C@H](N)CCCNC(=N)N)C(N)=O [Z34] (I: H-[dR][dL][dK]([dL-dR])[dR][dL][dK][dR][dL][dK][dK](Stearoyl)-NH2 / II: H-[dR][dL][dK]([dL-dR])[dR][dL][dK][dR][dL] / III: H-[dR][dL][dK]([dL-dR])[dR][dL] / IV: H-[dR][dL][dK]([dL-dR])[dR][dL]; amide I:6-IV:C, I:9-II:C, II:6-III:C) |  | 94 ± 6 | 69
4 |  |  |  |  |  | CCCCCCCCCCCCCCCCCC(=O)NCCCC[C@H](NC(=O)[C@H](CCCCNC(=O)[C@H](CC(C)C)NC(=O)[C@H](CCCCN)NC(=O)[C@H](CCCCNC(=O)[C@H](CC(C)C)NC(=O)[C@H](CCCCN)NC(=O)[C@H](CCCCNC(=O)[C@H](CC(C)C)NC(=O)[C@@H](N)CCCCN)NC(=O)[C@H](CC(C)C)NC(=O)[C@@H](N)CCCCN)NC(=O)[C@H](CC(C)C)NC(=O)[C@H](CCCCN)NC(=O)[C@H](CCCCNC(=O)[C@H](CC(C)C)NC(=O)[C@@H](N)CCCCN)NC(=O)[C@H](CC(C)C)NC(=O)[C@@H](N)CCCCN)NC(=O)[C@H](CC(C)C)NC(=O)[C@H](CCCCN)NC(=O)[C@H](CCCCNC(=O)[C@H](CC(C)C)NC(=O)[C@H](CCCCN)NC(=O)[C@H](CCCCNC(=O)[C@H](CC(C)C)NC(=O)[C@@H](N)CCCCN)NC(=O)[C@H](CC(C)C)NC(=O)[C@@H](N)CCCCN)NC(=O)[C@H](CC(C)C)NC(=O)[C@H](CCCCN)NC(=O)[C@H](CCCCNC(=O)[C@H](CC(C)C)NC(=O)[C@@H](N)CCCCN)NC(=O)[C@H](CC(C)C)NC(=O)[C@@H](N)CCCCN)C(N)=O [Z1] (I: H-KLK([Leu-Lys])KLKKLKK(Stearoyl)-NH2 / II: H-KLK([Leu-Lys])KLKKL / III: H-KLK([Leu-Lys])KL / IV: H-KLK([Leu-Lys])KL; amide I:6-IV:C, I:9-II:C, II:6-III:C) | 64 ± 7 | 51 ± 6 | 42
5 |  |  |  |  |  | CCCCCCCCCCCCCCCCCC(=O)NCCCC[C@@H](NC(=O)[C@@H](CCCCNC(=O)[C@@H](CC(C)C)NC(=O)[C@@H](CCCCN)NC(=O)[C@@H](CCCCNC(=O)[C@@H](CC(C)C)NC(=O)[C@@H](CCCCN)NC(=O)[C@@H](CCCCNC(=O)[C@@H](CC(C)C)NC(=O)[C@H](N)CCCCN)NC(=O)[C@@H](CC(C)C)NC(=O)[C@H](N)CCCCN)NC(=O)[C@@H](CC(C)C)NC(=O)[C@@H](CCCCN)NC(=O)[C@@H](CCCCNC(=O)[C@@H](CC(C)C)NC(=O)[C@H](N)CCCCN)NC(=O)[C@@H](CC(C)C)NC(=O)[C@H](N)CCCCN)NC(=O)[C@@H](CC(C)C)NC(=O)[C@@H](CCCCN)NC(=O)[C@@H](CCCCNC(=O)[C@@H](CC(C)C)NC(=O)[C@@H](CCCCN)NC(=O)[C@@H](CCCCNC(=O)[C@@H](CC(C)C)NC(=O)[C@H](N)CCCCN)NC(=O)[C@@H](CC(C)C)NC(=O)[C@H](N)CCCCN)NC(=O)[C@@H](CC(C)C)NC(=O)[C@@H](CCCCN)NC(=O)[C@@H](CCCCNC(=O)[C@@H](CC(C)C)NC(=O)[C@H](N)CCCCN)NC(=O)[C@@H](CC(C)C)NC(=O)[C@H](N)CCCCN)C(=O)N[C@H](CS)C(N)=O [Z20] (I: H-[dK][dL][dK]([dL-dK])[dK][dL][dK][dK][dL][dK][dK](Stearoyl)[dC]-NH2 / II: H-[dK][dL][dK]([dL-dK])[dK][dL][dK][dK][dL] / III: H-[dK][dL][dK]([dL-dK])[dK][dL] / IV: H-[dK][dL][dK]([dL-dK])[dK][dL]; amide I:6-IV:C, I:9-II:C, II:6-III:C) | 85 ± 9 | 85 ± 9 | 
6 |  |  |  |  |  | CCCCCCCCCCCCCCCCCC(=O)NCCCC[C@@H](NC(=O)[C@@H](CCCCNC(=O)[C@@H](CC(C)C)NC(=O)[C@@H](CC(C)C)NC(=O)[C@@H](CCCCNC(=O)[C@@H](CC(C)C)NC(=O)[C@@H](CCCNC(=N)N)NC(=O)[C@@H](CCCCNC(=O)[C@@H](CC(C)C)NC(=O)[C@H](N)CCCNC(=N)N)NC(=O)[C@@H](CC(C)C)NC(=O)[C@H](N)CCCNC(=N)N)NC(=O)[C@@H](CC(C)C)NC(=O)[C@@H](CCCNC(=N)N)NC(=O)[C@@H](CCCCNC(=O)[C@@H](CC(C)C)NC(=O)[C@H](N)CCCNC(=N)N)NC(=O)[C@@H](CC(C)C)NC(=O)[C@H](N)CCCNC(=N)N)NC(=O)[C@@H](CC(C)C)NC(=O)[C@@H](CC(C)C)NC(=O)[C@@H](CCCCNC(=O)[C@@H](CC(C)C)NC(=O)[C@@H](CCCNC(=N)N)NC(=O)[C@@H](CCCCNC(=O)[C@@H](CC(C)C)NC(=O)[C@H](N)CCCNC(=N)N)NC(=O)[C@@H](CC(C)C)NC(=O)[C@H](N)CCCNC(=N)N)NC(=O)[C@@H](CC(C)C)NC(=O)[C@@H](CCCNC(=N)N)NC(=O)[C@@H](CCCCNC(=O)[C@@H](CC(C)C)NC(=O)[C@H](N)CCCNC(=N)N)NC(=O)[C@@H](CC(C)C)NC(=O)[C@H](N)CCCNC(=N)N)C(N)=O [Z36] (I: H-[dR][dL][dK]([dL-dR])[dR][dL][dK][dL][dL][dK][dK](Stearoyl)-NH2 / II: H-[dR][dL][dK]([dL-dR])[dR][dL][dK][dL][dL] / III: H-[dR][dL][dK]([dL-dR])[dR][dL] / IV: H-[dR][dL][dK]([dL-dR])[dR][dL]; amide I:6-IV:C, I:9-II:C, II:6-III:C) | 87 ± 2 | 92 ± 6 | 

— publication PMC11352961, “Peptide dendrimers transfecting CRISPR/Cas9 plasmid DNA: optimization and mechanism” (RSC Chemical Biology, 2024)
